Laboratory results as given in ChEMBL document CHEMBL1141962, “Angiogenesis inhibitors derived from thalidomide” (2005).

Key:
Format in all cases: functional
Details in all cases: Homo sapiens
HUVEC [1] = assay: Inhibitory activity in HUVEC tube formation assay at 30 uM
HUVEC [2] = assay: Inhibitory activity in HUVEC tube formation assay at 10 uM
HUVEC [3] = assay: Inhibitory activity in HUVEC tube formation assay at 100 uM

SMILES | inhibition at 30 µM (HUVEC [1]) | inhibition at 10 µM (HUVEC [2]) | inhibition at 100 µM (HUVEC [3])
CC(C)c1cccc(C(C)C)c1N1C(=O)c2ccc(O)cc2C1=O | 41% | 8% | 59%
O=C1CCC(N2C(=O)c3cccc([N+](=O)[O-])c3C2=O)C(=O)N1 (configuration not stated) |  |  | 32%
Nc1cccc2c1CN(C1CCC(=O)NC1=O)C2=O (configuration not stated) [LENALIDOMIDE] |  |  | 32%
Nc1cccc2c1C(=O)N(C1CCC(=O)NC1=O)C2=O (configuration not stated) [POMALIDOMIDE] |  |  | 21%
O=C1CCC(N2C(=O)c3ccccc3C2=O)C(=O)N1 (configuration not stated) [THALIDOMIDE] |  |  | 26%
